How the values were obtained:
synaptic GABAA receptors = assay: Miniature inhibitory postsynaptic currents (mIPSCs) in hippocampal neurons; assay type: cell-based, rat
KCC2 [1] = biological target: T1, KCC2 (Rattus norvegicus, UniProt Q63633); assay: KCC2 cluster immunocytochemistry in hippocampal neurons; assay type: cell-based; conditions: for change of KCC2 cluster area / change of KCC2 cluster density / change of KCC2 cluster intensity: vs DMSO
T1 construct: endogenous in cells; host or cells: primary rat hippocampal neurons (E18-19 Sprague-Dawley)
T1 sequence (Q63633 1-1116 isoform Q63633-2): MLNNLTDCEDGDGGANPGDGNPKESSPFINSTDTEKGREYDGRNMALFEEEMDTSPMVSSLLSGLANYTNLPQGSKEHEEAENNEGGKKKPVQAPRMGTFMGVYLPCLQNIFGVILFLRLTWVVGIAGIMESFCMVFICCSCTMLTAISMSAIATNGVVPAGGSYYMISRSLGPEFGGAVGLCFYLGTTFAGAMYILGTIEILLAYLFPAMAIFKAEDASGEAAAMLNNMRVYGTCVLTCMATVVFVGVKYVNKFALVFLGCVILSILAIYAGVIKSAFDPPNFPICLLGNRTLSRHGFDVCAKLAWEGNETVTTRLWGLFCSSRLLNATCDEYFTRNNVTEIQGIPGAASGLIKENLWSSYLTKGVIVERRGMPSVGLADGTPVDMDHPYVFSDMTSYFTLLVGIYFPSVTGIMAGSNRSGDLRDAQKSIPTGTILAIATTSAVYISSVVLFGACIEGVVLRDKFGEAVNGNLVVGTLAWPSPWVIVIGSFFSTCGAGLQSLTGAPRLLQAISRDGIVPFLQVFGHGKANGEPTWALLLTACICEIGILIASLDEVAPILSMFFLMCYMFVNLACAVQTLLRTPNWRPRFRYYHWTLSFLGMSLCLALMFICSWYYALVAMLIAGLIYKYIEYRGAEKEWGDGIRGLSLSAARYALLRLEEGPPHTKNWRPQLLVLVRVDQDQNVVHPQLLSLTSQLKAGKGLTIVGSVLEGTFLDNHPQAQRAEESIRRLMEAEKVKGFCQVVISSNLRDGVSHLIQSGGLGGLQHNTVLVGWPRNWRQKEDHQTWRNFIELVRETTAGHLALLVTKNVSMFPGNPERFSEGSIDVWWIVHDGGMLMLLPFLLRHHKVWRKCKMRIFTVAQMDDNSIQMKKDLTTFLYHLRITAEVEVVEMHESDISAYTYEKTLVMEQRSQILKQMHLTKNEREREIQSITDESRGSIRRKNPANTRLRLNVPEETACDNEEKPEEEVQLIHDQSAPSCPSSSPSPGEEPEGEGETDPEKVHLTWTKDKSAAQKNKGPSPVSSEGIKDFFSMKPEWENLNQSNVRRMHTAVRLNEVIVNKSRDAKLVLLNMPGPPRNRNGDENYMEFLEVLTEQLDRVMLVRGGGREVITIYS
Experimental: […] Drugs were added directly to the culture medium. For electrophysiology experiments, neurons were also recorded in presence of these drugs in the bath. For biochemistry experiments on rat hippocampo-cortical slices, slices were incubated with either DMSO (vehicle), CLP257, PCPZ, WNK463 or sodium orthovanadate for 2 hours in interface chambers set at 37° C. For human tissue experiments, slices were pre-incubated with either DMSO, CLP257 or PCPZ for 2 hours in interface chambers set at 37° C. and then also recorded in presence of these compounds.
Neurons were fixed for 15 min at room temperature (RT), with paraformaldehyde (PFA, 4% w/v in PBS). Cells were then washed in PBS, permeabilized with […] for 4 min at RT and then exposed to a blocking solution containing goat serum (20% v/v; Invitrogen) and 0.1% Triton X100 diluted in PBS. Neurons were incubated for 1 hour at RT with rabbit KCC2 antibody (1: 500; Sigma) and mouse MAP2 antibody (1:500; Chemicon). Neurons were then incubated for 45 min at RT with AlexaFluor 488-conjugated goat anti-mouse antibody (1:400; Jackson Labs) and with Cy3-conjugated goat anti-rabbit antibody (1:400; Jackson Labs). Neurons were then labeled with DAPI (1:2000, 5 min), washed in PBS and mounted on slides with Mowiol 844 (48 mg/ml, Sigma).
Images were acquired using a 63×objective (NA 1.40) mounted on an upright epifluorescence microscope (DM6000, Leica) equipped with a 12-bit cooled CCD camera (Micromax, Roper Scientific) operated with MetaMorph software (Roper Scientific). For KCC2 clusters detection, exposure time was adjusted to obtain best fluorescence to noise ratio and to avoid pixel saturation. This exposure time was maintained unchanged among cells and conditions. For experiments on non-transfected cells and for each neuron, dendritic sections were chosen using MAP2 labeling and then an image with tetramethylrhodamine (TRITC) filter was acquired to visualize KCC2 labeling.
KCC2 clusters analysis was performed using MetaMorph software (Roper Scientific), as previously described. Images were first flatten background filtered (kernel size, 3×3×2) to enhance cluster outline and a user-defined intensity threshold was applied to select clusters and avoid their coalescence. Clusters were delineated in the area of interest (AOI) and the corresponding regions were transferred onto raw images to quantify cluster density (mean KCC2 cluster number per 10 μm^2) and integrated cluster intensity (integrated fluorescence pixel intensity within clusters). For each culture, the analysis was done on 10 cells per condition and approx. 100 clusters per cell.

KCC2 [2] = biological target: T1, KCC2; assay: Somato-dendritic EGABA gradient (chloride extrusion), whole-cell patch clamp of hippocampal neurons; assay type: cell-based
recombinant human WNK1 = biological target: T2, recombinant human WNK1 (Homo sapiens, UniProt Q9H4A3); assay: Radiometric kinase profiling assay; assay type: biochemical; conditions: 70 μM ATP
T2 construct: purchased Eurofins Discovery (KinaseProfiler, contractor)
T2 sequence (Q9H4A3 whole entry): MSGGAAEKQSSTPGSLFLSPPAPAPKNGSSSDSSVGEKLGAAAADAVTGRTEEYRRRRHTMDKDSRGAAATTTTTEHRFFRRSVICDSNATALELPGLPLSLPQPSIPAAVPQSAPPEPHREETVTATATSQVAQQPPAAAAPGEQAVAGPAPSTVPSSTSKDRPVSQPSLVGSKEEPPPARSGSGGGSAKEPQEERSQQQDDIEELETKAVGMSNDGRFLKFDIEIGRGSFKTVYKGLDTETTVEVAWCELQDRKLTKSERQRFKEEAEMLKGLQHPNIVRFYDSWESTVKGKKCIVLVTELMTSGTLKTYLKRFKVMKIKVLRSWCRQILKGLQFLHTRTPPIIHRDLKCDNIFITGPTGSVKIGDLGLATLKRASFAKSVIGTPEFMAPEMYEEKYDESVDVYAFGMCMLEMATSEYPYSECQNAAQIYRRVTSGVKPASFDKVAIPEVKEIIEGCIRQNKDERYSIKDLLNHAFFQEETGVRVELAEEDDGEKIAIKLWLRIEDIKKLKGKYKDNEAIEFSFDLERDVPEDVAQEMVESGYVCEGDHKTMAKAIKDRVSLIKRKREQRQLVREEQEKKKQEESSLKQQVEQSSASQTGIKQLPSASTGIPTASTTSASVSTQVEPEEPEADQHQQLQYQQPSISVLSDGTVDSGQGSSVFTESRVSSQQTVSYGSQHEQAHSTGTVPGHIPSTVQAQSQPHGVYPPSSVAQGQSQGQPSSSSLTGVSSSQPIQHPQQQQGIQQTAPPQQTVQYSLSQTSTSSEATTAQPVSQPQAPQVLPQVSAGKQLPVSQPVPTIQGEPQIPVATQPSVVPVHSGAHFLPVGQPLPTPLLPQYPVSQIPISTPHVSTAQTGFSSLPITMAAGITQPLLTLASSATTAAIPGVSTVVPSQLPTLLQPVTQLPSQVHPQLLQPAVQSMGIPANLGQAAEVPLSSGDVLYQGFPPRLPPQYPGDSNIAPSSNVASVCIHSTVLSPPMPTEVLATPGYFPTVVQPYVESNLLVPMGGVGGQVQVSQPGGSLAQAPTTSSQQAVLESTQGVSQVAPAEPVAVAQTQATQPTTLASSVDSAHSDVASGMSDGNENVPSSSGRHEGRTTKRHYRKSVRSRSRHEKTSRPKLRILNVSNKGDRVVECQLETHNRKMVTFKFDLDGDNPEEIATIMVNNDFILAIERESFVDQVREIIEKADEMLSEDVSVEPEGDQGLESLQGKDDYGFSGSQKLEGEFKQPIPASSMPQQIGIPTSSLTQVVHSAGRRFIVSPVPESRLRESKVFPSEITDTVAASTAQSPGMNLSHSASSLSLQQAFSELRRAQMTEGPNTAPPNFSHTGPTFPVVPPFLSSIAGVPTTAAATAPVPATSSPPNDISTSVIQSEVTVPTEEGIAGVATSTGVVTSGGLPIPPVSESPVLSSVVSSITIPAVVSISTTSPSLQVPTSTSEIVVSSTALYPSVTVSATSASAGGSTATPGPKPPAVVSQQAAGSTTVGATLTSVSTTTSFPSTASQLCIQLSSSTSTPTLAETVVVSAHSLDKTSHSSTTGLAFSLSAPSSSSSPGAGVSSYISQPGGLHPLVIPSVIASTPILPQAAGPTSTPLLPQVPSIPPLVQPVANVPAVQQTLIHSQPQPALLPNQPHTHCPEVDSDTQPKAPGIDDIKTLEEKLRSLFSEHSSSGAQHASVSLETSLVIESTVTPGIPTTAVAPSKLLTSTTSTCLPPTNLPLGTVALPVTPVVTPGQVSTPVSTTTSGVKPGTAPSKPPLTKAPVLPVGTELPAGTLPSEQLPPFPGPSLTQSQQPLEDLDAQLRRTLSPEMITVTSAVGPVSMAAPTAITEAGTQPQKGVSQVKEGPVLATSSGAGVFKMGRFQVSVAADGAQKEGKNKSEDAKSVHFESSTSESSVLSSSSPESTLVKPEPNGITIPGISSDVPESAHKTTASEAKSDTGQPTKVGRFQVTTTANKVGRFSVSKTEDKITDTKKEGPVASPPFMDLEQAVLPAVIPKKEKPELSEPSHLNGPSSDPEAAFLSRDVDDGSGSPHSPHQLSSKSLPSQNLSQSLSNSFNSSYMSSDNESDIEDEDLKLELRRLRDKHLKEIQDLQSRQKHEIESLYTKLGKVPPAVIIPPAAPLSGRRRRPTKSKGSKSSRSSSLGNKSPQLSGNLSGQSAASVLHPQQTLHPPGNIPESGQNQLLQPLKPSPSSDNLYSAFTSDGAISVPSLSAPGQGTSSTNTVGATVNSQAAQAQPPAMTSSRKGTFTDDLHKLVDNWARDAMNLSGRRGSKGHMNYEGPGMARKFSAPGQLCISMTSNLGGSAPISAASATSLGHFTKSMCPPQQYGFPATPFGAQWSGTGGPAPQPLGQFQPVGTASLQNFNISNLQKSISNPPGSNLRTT
Experimental: (§1) Kinase activity profiles (data not shown) were performed using radiometric assays to measure kinase catalytic activity for PCPZ concentrations ranging 0.1-500 μM in DMSO or CLP257 concentrations ranging 0.1-1000 μM in DMSO, in the presence of 70 μM ATP. Equimolar DMSO concentrations were used as control. Additional information on the kinase profiler assay can be obtained from the contractor's website. (https://www.eurofinsdiscoveryservices.com/cms/cms-content/services/in-vitro-assays/kinases/kinase-profiler).

recombinant human WNK3 = biological target: T3, recombinant human WNK3 (Homo sapiens, UniProt Q9BYP7); assay: Radiometric kinase profiling assay; assay type: biochemical; conditions: 70 μM ATP
T3 construct: purchased Eurofins Discovery (KinaseProfiler, contractor)
T3 sequence (Q9BYP7 whole entry): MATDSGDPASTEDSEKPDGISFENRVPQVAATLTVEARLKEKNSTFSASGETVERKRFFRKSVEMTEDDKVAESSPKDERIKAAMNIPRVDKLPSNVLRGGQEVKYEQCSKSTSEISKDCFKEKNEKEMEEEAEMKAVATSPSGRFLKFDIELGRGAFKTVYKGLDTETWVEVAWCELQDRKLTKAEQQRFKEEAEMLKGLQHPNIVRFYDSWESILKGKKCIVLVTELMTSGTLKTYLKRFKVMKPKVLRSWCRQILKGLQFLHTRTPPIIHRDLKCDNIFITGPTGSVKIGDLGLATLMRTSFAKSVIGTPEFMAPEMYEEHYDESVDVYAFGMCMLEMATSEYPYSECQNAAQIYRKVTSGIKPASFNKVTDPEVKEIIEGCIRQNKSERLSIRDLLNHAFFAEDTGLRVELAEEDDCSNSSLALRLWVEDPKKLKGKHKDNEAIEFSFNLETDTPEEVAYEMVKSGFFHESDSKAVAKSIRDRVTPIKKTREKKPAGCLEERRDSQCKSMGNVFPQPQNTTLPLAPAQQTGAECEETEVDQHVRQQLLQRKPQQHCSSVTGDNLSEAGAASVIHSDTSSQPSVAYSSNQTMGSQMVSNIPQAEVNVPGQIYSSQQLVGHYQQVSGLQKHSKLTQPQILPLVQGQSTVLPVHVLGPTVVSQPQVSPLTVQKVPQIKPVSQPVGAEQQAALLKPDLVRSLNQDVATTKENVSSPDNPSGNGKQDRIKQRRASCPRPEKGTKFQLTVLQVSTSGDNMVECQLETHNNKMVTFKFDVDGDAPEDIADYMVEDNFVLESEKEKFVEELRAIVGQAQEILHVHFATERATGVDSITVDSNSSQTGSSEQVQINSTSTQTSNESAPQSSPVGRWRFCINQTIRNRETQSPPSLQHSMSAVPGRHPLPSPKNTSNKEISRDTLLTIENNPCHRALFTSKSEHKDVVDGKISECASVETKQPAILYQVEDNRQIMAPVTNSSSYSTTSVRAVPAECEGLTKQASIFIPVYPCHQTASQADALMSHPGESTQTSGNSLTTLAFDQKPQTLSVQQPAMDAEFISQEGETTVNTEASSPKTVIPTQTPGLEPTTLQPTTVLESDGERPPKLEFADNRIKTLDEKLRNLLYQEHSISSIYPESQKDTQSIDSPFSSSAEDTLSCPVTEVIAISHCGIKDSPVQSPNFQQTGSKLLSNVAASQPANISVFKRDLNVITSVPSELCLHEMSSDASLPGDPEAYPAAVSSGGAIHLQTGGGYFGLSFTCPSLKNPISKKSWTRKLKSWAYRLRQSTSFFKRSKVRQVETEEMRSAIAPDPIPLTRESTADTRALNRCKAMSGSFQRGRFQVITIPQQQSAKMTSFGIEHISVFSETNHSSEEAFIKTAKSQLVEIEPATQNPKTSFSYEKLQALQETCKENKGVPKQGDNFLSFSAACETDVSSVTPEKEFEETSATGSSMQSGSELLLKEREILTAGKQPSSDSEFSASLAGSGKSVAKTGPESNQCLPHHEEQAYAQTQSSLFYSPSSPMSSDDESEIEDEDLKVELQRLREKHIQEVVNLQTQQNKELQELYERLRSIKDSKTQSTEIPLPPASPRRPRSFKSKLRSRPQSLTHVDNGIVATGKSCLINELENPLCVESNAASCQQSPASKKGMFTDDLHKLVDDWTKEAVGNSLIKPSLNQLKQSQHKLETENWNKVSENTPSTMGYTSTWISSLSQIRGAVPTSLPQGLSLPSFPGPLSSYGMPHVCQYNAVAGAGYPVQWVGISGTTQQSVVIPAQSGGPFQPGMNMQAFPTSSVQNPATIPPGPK
Experimental: as §1

recombinant human OSR1 = biological target: T4, recombinant human OSR1 (Homo sapiens, UniProt O95747); assay: Radiometric kinase profiling assay; assay type: biochemical; conditions: 70 μM ATP
T4 construct: purchased Eurofins Discovery (KinaseProfiler, contractor)
T4 sequence (O95747 whole entry): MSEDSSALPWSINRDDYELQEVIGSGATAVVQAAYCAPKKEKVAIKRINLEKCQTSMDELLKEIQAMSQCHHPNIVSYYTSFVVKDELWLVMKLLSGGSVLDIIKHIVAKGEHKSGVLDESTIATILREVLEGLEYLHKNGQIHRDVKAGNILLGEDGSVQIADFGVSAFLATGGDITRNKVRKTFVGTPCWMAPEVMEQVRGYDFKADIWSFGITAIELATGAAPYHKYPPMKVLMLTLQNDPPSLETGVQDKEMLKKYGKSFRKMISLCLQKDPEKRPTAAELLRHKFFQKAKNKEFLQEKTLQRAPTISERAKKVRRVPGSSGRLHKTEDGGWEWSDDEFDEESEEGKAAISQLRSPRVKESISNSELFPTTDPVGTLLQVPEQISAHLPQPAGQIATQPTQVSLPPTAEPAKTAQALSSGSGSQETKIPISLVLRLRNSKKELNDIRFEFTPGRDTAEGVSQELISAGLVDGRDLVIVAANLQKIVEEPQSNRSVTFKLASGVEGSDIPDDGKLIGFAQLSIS
Experimental: as §1

[3] = biological target: T5, recombinant human STK39 (SPAK) (Homo sapiens, UniProt Q9UEW8); assay: Radiometric kinase profiling assay; assay type: biochemical; conditions: 70 μM ATP
T5 construct: purchased Eurofins Discovery (KinaseProfiler, contractor)
Experimental: as §1

Question: `O=C1N=C(N2CCCCN2)S/C1=C\c1ccc(F)cc1O` [CLP257, (5Z)-5-[(4-Fluoro-2-hydroxyphenyl)methylene]-2-(tetrahydro-1-(2H)-pyridazinyl)-4(5H)-thiazolone] was tested. Which “mIPSCs decay time constant” value (synaptic GABAA receptors; 100 μM CLP257, before drug 12.36±0.75) did it give?
Answer: 12.53 ± 1.01 ms

Question: And the mIPSCs amplitude (synaptic GABAA receptors; 100 μM CLP257, before drug 42.32±3.40)?
Answer: 43.77±2.86 pA

Question: What about the “increased KCC2 clustering observed” value (KCC2 [1]; 100 μM CLP257, 30 minutes) of the same compound?
Answer: not after 30 minutes only

Question: And the “change of KCC2 cluster area” value (KCC2 [1]; 100 μM CLP257, 2 h)?
Answer: +36.30±20.40%

Question: What about the “change of KCC2 cluster density” value (KCC2 [1]; 100 μM CLP257, 2 h) of the same compound?
Answer: −3.48±4.20%

Question: And the “change of KCC2 cluster intensity” value (KCC2 [1]; 100 μM CLP257, 2 h)?
Answer: +33.94±13.64%

Question: And the “somato-dendritic gradient of EGABA (ΔEGABA)” value (KCC2 [2]; 100 μM CLP257, 2 h, RubiGABA 30 μM uncaging, control 5.32±1.08)?
Answer: 9.70±1.13 mV/100 μm

Question: What about the “inhibition of WNK1 kinase activity” value (recombinant human WNK1; CLP257 0.1-1000 μM) of the same compound?
Answer: no direct inhibitory effect

Question: What about the “inhibition of WNK3 kinase activity” value (recombinant human WNK3; CLP257 0.1-1000 μM) of the same compound?
Answer: no direct inhibitory effect

Question: And the “inhibition of OSR1 kinase activity” value (recombinant human OSR1; CLP257 0.1-1000 μM)?
Answer: no direct inhibitory effect

Question: What about the “inhibition of SPAK kinase activity” value ([3]; CLP257 0.1-1000 μM) of the same compound?
Answer: no direct inhibitory effect

Question: With `CN1CCN(CCCN2c3ccccc3Sc3ccc(Cl)cc32)CC1` [PCPZ, prochlorperazine] as the compound, how does the “mIPSCs decay time constant” value (synaptic GABAA receptors; 10 μM PCPZ, before drug 10.66±0.80) read?
Answer: 10.17 ± 0.71 ms

Question: And the mIPSCs amplitude (synaptic GABAA receptors; 10 μM PCPZ, before drug 42.49±2.54)?
Answer: 42.92±2.55 pA

Question: What about the “increased KCC2 clustering observed” value (KCC2 [1]; 10 μM PCPZ, 30 minutes) of the same compound?
Answer: not after 30 minutes only

Question: What about the “change of KCC2 cluster area” value (KCC2 [1]; 10 μM PCPZ, 2 h) of the same compound?
Answer: +45.25±18.07%

Question: And the “change of KCC2 cluster density” value (KCC2 [1]; 10 μM PCPZ, 2 h)?
Answer: −6.58±8.37%

Question: And the “change of KCC2 cluster intensity” value (KCC2 [1]; 10 μM PCPZ, 2 h)?
Answer: +109±61.44%

Question: And the “somato-dendritic gradient of EGABA (ΔEGABA)” value (KCC2 [2]; 10 μM PCPZ, 2 h, isoguvacine 100 μM, control 6.56±0.83)?
Answer: 11.50±1.53 mV/100 μm

Question: And the “inhibition of WNK1 kinase activity” value (recombinant human WNK1; PCPZ 0.1-500 μM)?
Answer: no direct inhibitory effect

Question: What about the “inhibition of WNK3 kinase activity” value (recombinant human WNK3; PCPZ 0.1-500 μM) of the same compound?
Answer: no direct inhibitory effect

Question: What about the “inhibition of OSR1 kinase activity” value (recombinant human OSR1; PCPZ 0.1-500 μM) of the same compound?
Answer: no direct inhibitory effect

Question: And the “inhibition of SPAK kinase activity” value ([3]; PCPZ 0.1-500 μM)?
Answer: no direct inhibitory effect

Source: US20240197728A1, “METHODS AND PHARMACEUTICAL COMPOSITIONS FOR TREATING REFRACTORY EPILEPSY” (INSERM (INSTITUT NATIONAL DE LA SANTÉ ET DE LA RECHERCHE …, priority 2021, published 2024)
